Results from ChEMBL document CHEMBL1201861, “Genomics of Drug Sensitity in Cancer screening data, Wellcome Trust Sanger Institute”.

Assays:
Assay in all cases: cells
8-MG-BA = assay type: functional, cell-based, Homo sapiens; details: Homo sapiens, 8-MG-BA;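 note: growth inhibition of 8-MG-BA cells, read out with a cell viability assay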
Description: SANGER: Inhibition of human 8-MG-BA cell growth in a cell viability assay.

OAW-28 = assay type: functional, cell-based, Homo sapiens; details: Homo sapiens, OAW-28;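 note: growth inhibition of OAW-28 cells, read out with a cell viability assay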
Description: SANGER: Inhibition of human OAW-28 cell growth in a cell viability assay.

NCI-H1563 = assay type: functional, cell-based, Homo sapiens; details: Homo sapiens, NCI-H1563;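 note: growth inhibition of human NCI-H1563 cells, read out with a cell viability assay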
Description: SANGER: Inhibition of human NCI-H1563 cell growth in a cell viability assay.

HTC-C3 = assay type: functional, cell-based, Homo sapiens; details: Homo sapiens, HTC-C3;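 note: inhibition of cell growth, read out with a cell viability assay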
Description: SANGER: Inhibition of human HTC-C3 cell growth in a cell viability assay.

KM12 = assay type: functional, cell-based, Homo sapiens; details: Homo sapiens, KM12;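 note: KM12 cell growth inhibition, read out with a cell viability assay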
Description: SANGER: Inhibition of human KM12 cell growth in a cell viability assay.

KNS-42 = assay type: functional, cell-based, Homo sapiens; details: Homo sapiens, KNS-42;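 note: growth inhibition of KNS-42 cells, read out with a cell viability assay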
Description: SANGER: Inhibition of human KNS-42 cell growth in a cell viability assay.

NMC-G1 = assay type: functional, cell-based, Homo sapiens; details: Homo sapiens, NMC-G1;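 note: growth inhibition of the NMC-G1 cell line, measured with a cell viability read-out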
Description: SANGER: Inhibition of human NMC-G1 cell growth in a cell viability assay.

SNU-C2B = assay type: functional, cell-based, Homo sapiens; details: Homo sapiens, SNU-C2B;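 note: cell viability readout used to measure compound-driven suppression of SNU-C2B cell proliferation, IC50 marking half-maximal growth inhibition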
Description: SANGER: Inhibition of human SNU-C2B cell growth in a cell viability assay.

FaDu = assay type: functional, cell-based, Homo sapiens; details: Homo sapiens, FaDu;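 note: cell viability readout of growth inhibition in FaDu cells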
Description: SANGER: Inhibition of human FADU cell growth in a cell viability assay.

MDA-MB-361 = assay type: functional, cell-based, Homo sapiens; details: Homo sapiens, MDA-MB-361
TE-12 = assay type: functional, cell-based; details: Homo sapiens;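 note: growth inhibition of TE-12 cells, read out by a cell viability assay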
Description: SANGER: Inhibition of human TE-12 cell growth in a cell viability assay.

KP-4 = assay type: functional, cell-based, Homo sapiens; details: Homo sapiens, KP-4; read-out: IC50;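 note: human KP-4 cells, with growth inhibition read out through a cell viability assay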
Description: SANGER: Inhibition of human KP-4 cell growth in a cell viability assay.

PFSK-1 = assay type: functional, cell-based, Homo sapiens; details: Homo sapiens, PFSK-1;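 note: cell viability assay measuring how strongly compounds suppress growth of human PFSK-1 cells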
Description: SANGER: Inhibition of human PFSK-1 cell growth in a cell viability assay.

KLE = assay type: functional, cell-based, Homo sapiens; details: Homo sapiens, KLE;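 note: growth inhibition of human KLE cells, read out with a cell viability assay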
Description: SANGER: Inhibition of human KLE cell growth in a cell viability assay.

NCI-H1437 = assay type: functional, cell-based, Homo sapiens; details: Homo sapiens, NCI-H1437;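 note: growth inhibition of human NCI-H1437 cells, read out by a cell viability assay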
Description: SANGER: Inhibition of human NCI-H1437 cell growth in a cell viability assay.

COR-L88 = assay type: functional, cell-based; details: Homo sapiens;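 note: growth inhibition of COR-L88 cells, read out with a cell viability assay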
Description: SANGER: Inhibition of human COR-L88 cell growth in a cell viability assay.

D-336MG = assay type: functional, cell-based, Homo sapiens; details: Homo sapiens, D-336MG
Description: SANGER: Inhibition of human D-336MG cell growth in a cell viability assay.

TE-11 = assay type: functional, cell-based, Homo sapiens; details: Homo sapiens, TE-11;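 note: growth inhibition of human TE-11 cells, read out by a cell viability assay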
Description: SANGER: Inhibition of human TE-11 cell growth in a cell viability assay.

WM-115 = assay type: functional, cell-based, Homo sapiens; details: Homo sapiens, WM-115
Description: SANGER: Inhibition of human WM-115 cell growth in a cell viability assay.

A204 = assay type: functional, cell-based, Homo sapiens; details: Homo sapiens, A204;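 note: growth inhibition of human A204 cells, read out with a cell viability assay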
Description: SANGER: Inhibition of human A204 cell growth in a cell viability assay.

CAKI-1 = assay type: functional, cell-based, Homo sapiens; details: Homo sapiens, CAKI-1;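 note: growth inhibition of CAKI-1 cells, measured by a cell viability assay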
Description: SANGER: Inhibition of human CAKI-1 cell growth in a cell viability assay.

EM-2 = assay type: functional, cell-based; details: Homo sapiens;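 note: growth inhibition of EM-2 cells, read out with a cell viability assay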
Description: SANGER: Inhibition of human EM-2 cell growth in a cell viability assay.

MDA-MB-175-VII = assay type: functional, cell-based, Homo sapiens; details: Homo sapiens, MDA-MB-175-VII
8505C = assay type: functional, cell-based, Homo sapiens; details: Homo sapiens, 8505C
Description: SANGER: Inhibition of human 8505C cell growth in a cell viability assay.

MSTO-211H = assay type: functional, cell-based, Homo sapiens; details: Homo sapiens, MSTO-211H
Description: SANGER: Inhibition of human MSTO-211H cell growth in a cell viability assay.

MKN-7 = assay type: functional, cell-based, Homo sapiens; details: Homo sapiens, MKN-7;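 note: growth inhibition of MKN-7 cells, read out with a cell viability assay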
Description: SANGER: Inhibition of human MKN7 cell growth in a cell viability assay.

LB996-RCC = assay type: functional, cell-based; details: Homo sapiens
Description: SANGER: Inhibition of human LB996-RCC cell growth in a cell viability assay.

HuCCT-1 = assay type: functional, cell-based, Homo sapiens, HuCCT1; details: Homo sapiens, HuCCT-1;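 note: growth inhibition of HuCCT-1 cells, read out by a cell viability assay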
Description: SANGER: Inhibition of human HuCCT1 cell growth in a cell viability assay.

SK-HEP1 = assay type: functional, cell-based, Homo sapiens, SK-HEP-1; details: Homo sapiens, SK-HEP1;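 note: cell viability readout used to quantify reduction in proliferation of human SK-HEP-1 cells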
Description: SANGER: Inhibition of human SK-HEP-1 cell growth in a cell viability assay.

Ca9-22 = assay type: functional, cell-based, Homo sapiens; details: Homo sapiens, Ca9-22;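 note: growth inhibition of Ca9-22 cells, read out with a cell viability assay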
Description: SANGER: Inhibition of human Ca9-22 cell growth in a cell viability assay.

LCLC-103H cell line = assay type: functional, cell-based, Homo sapiens; details: Homo sapiens, LCLC-103H
Description: SANGER: Inhibition of human LCLC-103H cell growth in a cell viability assay.

KYSE-180 = assay type: functional, cell-based, Homo sapiens; details: Homo sapiens, KYSE-180;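 note: growth inhibition of KYSE-180 cells, read out with a cell viability assay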
Description: SANGER: Inhibition of human KYSE-180 cell growth in a cell viability assay.

M059J = assay type: functional, cell-based, Homo sapiens; details: Homo sapiens, M059J;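 note: growth inhibition of M059J cells, read out with a cell viability assay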
Description: SANGER: Inhibition of human M059J cell growth in a cell viability assay.

ACHN = assay type: functional, cell-based, Homo sapiens; details: Homo sapiens, ACHN;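 note: cell viability read-out used to gauge how strongly growth of human ACHN cells is suppressed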
Description: SANGER: Inhibition of human ACHN cell growth in a cell viability assay.

COLO-680N = assay type: functional, cell-based, Homo sapiens; details: Homo sapiens, COLO-680N;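 note: cell viability assay used to measure inhibition of COLO-680N cell growth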
Description: SANGER: Inhibition of human COLO-680N cell growth in a cell viability assay.

EFO-27 = assay type: functional, cell-based, Homo sapiens; details: Homo sapiens, EFO-27;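 note: growth inhibition of EFO-27 cells, read out with a cell viability assay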
Description: SANGER: Inhibition of human EFO-27 cell growth in a cell viability assay.

ES7 = assay type: functional, cell-based, Homo sapiens; details: Homo sapiens, ES7;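 note: growth inhibition of cultured human ES7 cells, read out as cell viability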
Description: SANGER: Inhibition of human ES7 cell growth in a cell viability assay.

SK-MEL-30 = assay type: functional, cell-based; details: Homo sapiens;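 note: growth inhibition of SK-MEL-30 cells, determined with a cell viability assay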
Description: SANGER: Inhibition of human SK-MEL-30 cell growth in a cell viability assay.

Ramos-2G6-4C10 = assay type: functional, cell-based; details: Homo sapiens;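 note: growth inhibition of the cell line, measured by a cell viability read-out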
Description: SANGER: Inhibition of human Ramos-2G6-4C10 cell growth in a cell viability assay.

KP-N-YS = assay type: functional, cell-based; details: Homo sapiens;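 note: cell viability assay measuring inhibition of cell line growth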
Description: SANGER: Inhibition of human KP-N-YS cell growth in a cell viability assay.

SW982 = assay type: functional, cell-based; details: Homo sapiens;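 note: growth inhibition of SW982 cells, read out with a cell viability assay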
Description: SANGER: Inhibition of human SW982 cell growth in a cell viability assay.

HSC-2 = assay type: functional, cell-based, Homo sapiens; details: Homo sapiens, HSC-2;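 note: growth inhibition of human HSC-2 cells, read out by a cell viability assay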
Description: SANGER: Inhibition of human HSC-2 cell growth in a cell viability assay.

NCI-H358 = assay type: functional, cell-based, Homo sapiens; details: Homo sapiens, NCI-H358;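 note: growth inhibition of NCI-H358 human cells, read out with a cell viability assay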
Description: SANGER: Inhibition of human NCI-H358 cell growth in a cell viability assay.

MDA-MB-415 = assay type: functional, cell-based; details: Homo sapiens
D-542MG = assay type: functional, cell-based, Homo sapiens; details: Homo sapiens, D-542MG
Description: SANGER: Inhibition of human D-542MG cell growth in a cell viability assay.

COLO-678 = assay type: functional, cell-based, Homo sapiens; details: Homo sapiens, COLO-678
Description: SANGER: Inhibition of human COLO-678 cell growth in a cell viability assay.

GR-ST = assay type: functional, cell-based; details: Homo sapiens
Description: SANGER: Inhibition of human GR-ST cell growth in a cell viability assay.

BHY = assay type: functional, cell-based, Homo sapiens; details: Homo sapiens, BHY;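 note: cell growth inhibition read out by a viability assay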
Description: SANGER: Inhibition of human BHY cell growth in a cell viability assay.

RPMI-2650 = assay type: functional, cell-based, Homo sapiens; details: Homo sapiens, RPMI-2650
Description: SANGER: Inhibition of human RPMI-2650 cell growth in a cell viability assay.

NOS-1 = assay type: functional, cell-based, Homo sapiens; details: Homo sapiens, NOS-1;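 note: growth inhibition of the human NOS-1 cell line, read out with a cell viability assay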
Description: SANGER: Inhibition of human NOS-1 cell growth in a cell viability assay.

COc1cc([C@@H]2c3cc4c(cc3[C@@H](O[C@@H]3O[C@@H]5CO[C@@H](C)O[C@H]5[C@H](O)[C@H]3O)[C@H]3COC(=O)[C@H]23)OCO4)cc(OC)c1O [ETOPOSIDE]
IC50 (8-MG-BA): 0.0469 µM
IC50 (OAW-28): 2.15 µM
IC50 (NCI-H1563): 7.07 µM
IC50 (HTC-C3): > 16 µM
IC50 (KM12): 1.88 µM
IC50 (KNS-42): 13.7 µM
IC50 (NMC-G1): 3.32 µM
IC50 (SNU-C2B): > 16 µM
IC50 (FaDu): 1.28 µM
IC50 (MDA-MB-361): > 16 µM
IC50 (TE-12): > 16 µM
IC50 (KP-4): 0.416 µM
IC50 (PFSK-1): > 16 µM
IC50 (KLE): 10.3 µM
IC50 (NCI-H1437): 3.38 µM
IC50 (COR-L88): > 16 µM
IC50 (D-336MG): > 16 µM
IC50 (TE-11): 7.46 µM
IC50 (WM-115): > 16 µM
IC50 (A204): 0.232 µM
IC50 (CAKI-1): 6.65 µM
IC50 (EM-2): 1.58 µM
IC50 (MDA-MB-175-VII): > 16 µM
IC50 (8505C): 0.693 µM
IC50 (MSTO-211H): > 16 µM
IC50 (MKN-7): > 16 µM
IC50 (LB996-RCC): > 16 µM
IC50 (HuCCT-1): 1.91 µM
IC50 (SK-HEP1): 0.267 µM
IC50 (Ca9-22): 2.19 µM
IC50 (LCLC-103H cell line): 0.651 µM
IC50 (KYSE-180): 2.07 µM
IC50 (M059J): 0.364 µM
IC50 (ACHN): 0.839 µM
IC50 (COLO-680N): 8.26 µM
IC50 (EFO-27): 3.36 µM
IC50 (ES7): 0.767 µM
IC50 (SK-MEL-30): 8.24 µM
IC50 (Ramos-2G6-4C10): 9.94 µM
IC50 (KP-N-YS): 4.24 µM
IC50 (SW982): 0.131 µM
IC50 (HSC-2): 0.706 µM
IC50 (NCI-H358): 3.15 µM
IC50 (MDA-MB-415): > 16 µM
IC50 (D-542MG): > 16 µM
IC50 (COLO-678): > 16 µM
IC50 (GR-ST): 6.69 µM
IC50 (BHY): 1.53 µM
IC50 (RPMI-2650): 0.572 µM
IC50 (NOS-1): 3.58 µM

CCC1=C[C@@H]2CN(C1)Cc1c([nH]c3ccccc13)[C@@](C(=O)OC)(c1cc3c(cc1OC)N(C)[C@H]1[C@@](O)(C(=O)OC)[C@H](OC(C)=O)[C@]4(CC)C=CCN5CC[C@]31[C@@H]54)C2 [VINORELBINE]
IC50 (8-MG-BA): 0.00337 µM
IC50 (OAW-28): 0.0152 µM
IC50 (NCI-H1563): 0.0128 µM
IC50 (HTC-C3): 0.0265 µM
IC50 (KM12): 0.00261 µM
IC50 (KNS-42): 0.00803 µM
IC50 (NMC-G1): 0.0149 µM
IC50 (SNU-C2B): 0.00775 µM
IC50 (FaDu): 0.0485 µM
IC50 (MDA-MB-361): 0.00976 µM
IC50 (TE-12): > 0.064 µM
IC50 (KP-4): 0.00271 µM
IC50 (PFSK-1): 0.0205 µM
IC50 (KLE): > 0.064 µM
IC50 (NCI-H1437): 0.00711 µM
IC50 (COR-L88): 0.0348 µM
IC50 (D-336MG): 0.0639 µM
IC50 (TE-11): 0.00916 µM
IC50 (WM-115): > 0.064 µM
IC50 (A204): 0.00321 µM
IC50 (CAKI-1): > 0.064 µM
IC50 (EM-2): 0.0448 µM
IC50 (MDA-MB-175-VII): > 0.064 µM
IC50 (8505C): 0.00442 µM
IC50 (MSTO-211H): > 0.064 µM
IC50 (MKN-7): > 0.064 µM
IC50 (LB996-RCC): > 0.064 µM
IC50 (HuCCT-1): 0.00278 µM
IC50 (SK-HEP1): 0.00452 µM
IC50 (Ca9-22): 0.0103 µM
IC50 (LCLC-103H cell line): 0.00143 µM
IC50 (KYSE-180): 0.00713 µM
IC50 (M059J): 0.0141 µM
IC50 (ACHN): 0.0458 µM
IC50 (COLO-680N): 0.0533 µM
IC50 (EFO-27): 0.00579 µM
IC50 (ES7): 0.00386 µM
IC50 (SK-MEL-30): 0.0124 µM
IC50 (Ramos-2G6-4C10): 0.00445 µM
IC50 (KP-N-YS): 0.0218 µM
IC50 (SW982): 0.0053 µM
IC50 (HSC-2): 0.00225 µM
IC50 (NCI-H358): 0.00589 µM
IC50 (MDA-MB-415): 0.0241 µM
IC50 (D-542MG): > 0.064 µM
IC50 (COLO-678): > 0.064 µM
IC50 (GR-ST): 0.00827 µM
IC50 (BHY): 0.00995 µM
IC50 (RPMI-2650): 0.01 µM
IC50 (NOS-1): 0.0413 µM

COC(=O)CNC(=O)C(=O)OC
IC50 (8-MG-BA): 126 µM
IC50 (OAW-28): 2110 µM
IC50 (NCI-H1563): 124 µM
IC50 (HTC-C3): 175 µM
IC50 (KM12): 2240 µM
IC50 (KNS-42): 229 µM
IC50 (NMC-G1): 466 µM
IC50 (SNU-C2B): > 4000 µM
IC50 (FaDu): 99.9 µM
IC50 (MDA-MB-361): 1690 µM
IC50 (TE-12): 182 µM
IC50 (KP-4): 1800 µM
IC50 (PFSK-1): 274 µM
IC50 (KLE): 1580 µM
IC50 (NCI-H1437): 90.8 µM
IC50 (COR-L88): 273 µM
IC50 (D-336MG): > 4000 µM
IC50 (TE-11): 420 µM
IC50 (WM-115): 220 µM
IC50 (A204): 398 µM
IC50 (CAKI-1): 289 µM
IC50 (EM-2): 234 µM
IC50 (MDA-MB-175-VII): > 4000 µM
IC50 (8505C): 678 µM
IC50 (MSTO-211H): > 4000 µM
IC50 (MKN-7): > 4000 µM
IC50 (LB996-RCC): 6.59 µM
IC50 (HuCCT-1): 211 µM
IC50 (SK-HEP1): 84.2 µM
IC50 (Ca9-22): 924 µM
IC50 (LCLC-103H cell line): 880 µM
IC50 (KYSE-180): > 4000 µM
IC50 (M059J): 541 µM
IC50 (ACHN): 297 µM
IC50 (COLO-680N): 242 µM
IC50 (EFO-27): 541 µM
IC50 (ES7): 478 µM
IC50 (SK-MEL-30): 626 µM
IC50 (Ramos-2G6-4C10): 100 µM
IC50 (KP-N-YS): 1680 µM
IC50 (SW982): 33.7 µM
IC50 (HSC-2): 504 µM
IC50 (NCI-H358): 103 µM
IC50 (MDA-MB-415): 2930 µM
IC50 (D-542MG): 560 µM
IC50 (COLO-678): 2000 µM
IC50 (GR-ST): 213 µM
IC50 (BHY): 465 µM
IC50 (RPMI-2650): 279 µM
IC50 (NOS-1): 772 µM
